We go through one substance from patent EP0583821A1, “Atriopeptins, guanylate cyclase activators, and phosphodiesterase inhibitors as treatment for glaucoma, hydrocephalus and cerebral edema (cranial fluid volume dysfunction)” (THE GENERAL HOSPITAL CORPORATION, priority 1987, dated 1988).

Data set [1] concerns rabbits. The data set is described as follows: Peripheral blood pressure after intravenous injection. Format: in vivo, rabbit. To be noted: intravenous injection of similar doses.
The subject of the next data set is guanylate cyclase. Description: Guanylate cyclase in pia-arachnoid preparation. Format: biochemical, rabbit. As to the method: The effect of rANP on membrane-bound guanylate cyclase and adenylate cyclase activity in various brain-barrier tissues and tissue fractions from rabbit was compared with its activity in cerebrum and cerebellum. Guanylate cyclase was measured as the rate of cyclic GMP formation by modifications of the technique of Waldman et al., supra, incorporated herein by reference. Briefly, tissues were homogenized (10 mg wet weight per milliliter) in 50 mM tris-HCl, pH 8.0, 1 mM EDTA, 1 mM dithiothreitol, and 250 mM sucrose and centrifuged at 100,000g to obtain a P1 pellet. Reaction tubes contained (in 0.3 ml), 50 mM tris, pH 7.6, 6 mM MnCl₂, 0.5 mM 3-isobutyl, 1-methylxanthine (IBMX), 10 mM theophylline, 3 mM GTP, hormone (in 0.03 ml containing 2.5 mM ascorbic acid and 0.1% bovine serum albumin), and 0.06 ml of P1 fraction (40 to 60 ug of protein). The reaction (4 minutes at 30°C) was started by addition of GTP and terminated by addition of 0.3 ml of 150 mM sodium acetate (pH 4.0) and boiling for 3 minutes. Cyclic GMP formed was subsequently measured by radioimmunoassay as described in example 6, infra. Under these conditions, guanylate cyclase activity was linear with time and tissue concentration. Adenylate cyclase activity in P1 fractions was measured according to the method described by Nathanson, et al., Science; 204:843 (1979); Mol. Pharmacol. 18:199 (1980), see Figure 1C . […] Neurosci. […]

In a further data set the test system is choroid epithelial cells. The data set is described as follows: Intracellular cyclic GMP content of isolated choroid epithelial cells. Format: cell-based, rabbit. To be noted: 5 minutes incubation; 1 uM rANP; PDE inhibitors theophylline (10 mM) and IBMX (0.5 mM). Here is the method: The effect of rANP on membrane-bound guanylate cyclase and adenylate cyclase activity in various brain-barrier tissues and tissue fractions from rabbit was compared with its activity in cerebrum and cerebellum. Guanylate cyclase was measured as the rate of cyclic GMP formation by modifications of the technique of Waldman et al., supra, incorporated herein by reference. Briefly, tissues were homogenized (10 mg wet weight per milliliter) in 50 mM tris-HCl, pH 8.0, 1 mM EDTA, 1 mM dithiothreitol, and 250 mM sucrose and centrifuged at 100,000g to obtain a P1 pellet. […] Cyclic GMP formed was subsequently measured by radioimmunoassay as described in example 6, infra. […] Adenylate cyclase activity in P1 fractions was measured according to the method described by Nathanson, et al., Science; 204:843 (1979); Mol. Pharmacol. 18:199 (1980), see Figure 1C . […]
Purified secretory epithelial cells were isolated and maintained in tissue culture medium in the absence of any hormones. […] More diffuse staining was found only in epithelium and not in vascular or stromal components of choroid epithelial cells as determined by fluorescein optics. […]
For one experiment, the mean ± range is shown for duplicate determinations, each assayed in triplicate for cyclic GMP content. […] After the cells were incubated for 5 minutes, they were killed and their cyclic GMP content was determined. […]

The subject of the next data set is albino rabbits. The data set is described as follows: Intraocular pressure after unilateral intravitreal injection. Format: in vivo, rabbit. As to the method: The measurement of intraocular pressure (IOP), was performed using procedures similar to those described in Nathanson, Brit. J. Pharmacol., 73:97 (1981) and Nathanson, Current Eye Res., 4:191 (1985). Briefly, male (3-5 kg), New Zealand white rabbits were housed under standard conditions and exposed to a 12 hr light-dark cycle. IOP was measured with a Perkins applanation tonometer after topical anesthesia with 0.4% benoxinate (and 0.25% sodium fluorescein). The tonometer had been calibrated previously by connecting the anterior chamber of enucleated rabbit eyes to a manometer (and reservoir) and taking tonometer readings at different pressures. A number of preliminary IOP readings were made in order to accommodate the animals to the measurement procedure. Readings were then taken just prior to drug or vehicle injection and at 3, 9, 20, 27, 44, 51, 72, and 144 hours post-injection.
Following topical anesthesia with 0.4% benoxinate, rabbits received rat atrial natriuretic peptide 1-28 (rANP) via a 10 microliter, intravitreal injection, through a 30g 1/2" needle, the tip of which was positioned at the approximate center of the eye. Drug was dissolved in a solution of artificial aqueous humor containing (in mmol/liter): NaCl 130, KCl 2.7, […] 18.3, MgCl₂ 1.33, CaCl₂ 1.5, Glucose 10, HEPES 20, and L-ascorbic acid, 2.5. The contralateral eye received a 10 microliter injection of vehicle alone. In order to evaluate the possible effects of intravitreal injection, per se, on IOP, additional rabbits received a 10 microliter intravitreal injection of vehicle in one eye only.
The contralateral eye received intravitreal injection of vehicle alone. Over a period of 9 hours, the ipsilateral eyes underwent a marked decline in pressure of about 5mm (Hg). This degree of hypotension persisted until about 48 hours post-injection and then underwent a slow recovery over the following four days. The decrease in pressure, compared with pre-injection IOP, was statistically significant at all time points from 3 to 72 hours post-injection. Values shown are mean ± SEM. Filled circles represent the IOP in the ipsilateral eye; open circles represent the IOP in the contralateral eye. *(p < .05); **(p < .01), for paired Students T-test relative to preinjection pressure (time 0). […] During the entire period, no affect on pupillary diameter of either the ipsilateral or contralateral eye was noted.
This contralateral decrease was statistically significant (p <.05 vs. pre-injection IOP) at 20 and 44 hours following injection. […]

Data set [2] deals with rabbits. Description: CSF production by ventricular-cisternal perfusion after intraventricular drug. Format: in vivo, rabbit. Here is the method: Drug was given intraventricularly, either by bolus injection or by continuous addition (during a 10-minute period) to the CSF perfusion system. Ventricular-cisternal perfusion of Blue dextran was carried out by a closed system with active pumping both into and out of the catheters at a rate of […]. Output dye concentration was monitored continuously with an in-line photocell; and a separate, contralateral venticular catheter independently measured intracranial pressure. […] Drug was administered in an artificial CSF containing 0.01% rabbit serum albumin (RSA) and 0.25 mM ascorbate. […] In one animal, there was no change in CSF secretion rate, and in no case was there an increase in CSF production. […] During a period of 100 minutes, secretion rate dropped by 70%.

In the case of “Ser-Leu-Arg-Arg-atriopeptin III (APIII) [rANP 1-28]”, the peripheral blood pressure result with rabbits [1] is recorded as “no change”. Also, in the data set with guanylate cyclase, the “degree of enzyme stimulation” value stood at 15%. Besides, in the data set on choroid epithelial cells, the “increase in cyclic GMP content” value is reported as “more than an eightfold increase”. Moreover, in the data set with albino rabbits (0.3 nmoles intravitreal), the “persistence of hypotension post-injection” value is reported as “about 48 hours”. For the same substance, the “IOP in the contralateral, vehicle-injected eye” value in the data set with albino rabbits (0.3 nmoles intravitreal in ipsilateral eye) was “also showed a decrease”. In addition, in the data set with albino rabbits (0.3 nmoles intravitreal, eight albino rabbits, over a period of 9 hours), the “decline in intraocular pressure, ipsilateral eye” value is “about 5 mm (Hg)”. In addition, the “effect on pupillary diameter” value with albino rabbits (ipsilateral or contralateral eye, entire period) is listed as “no affect”. The “mean decrease in rate of CSF production” value in the data set with rabbits [2] (13 positive responses, SEM, 30 pmol bolus or 3 to 30 pmol/min for 10 minutes intraventricular) was 35.3% ± 6.9%. Further, the “drop of CSF secretion rate” value with rabbits [2] (bolus injection of 30 pmol into the lateral ventricle, during 100 minutes, Fig. 3) turned out to be 70%. Moreover, the “positive responses (decrease in CSF production)” value in the data set with rabbits [2] (intraventricular bolus or infusion) is 13 of 14.
